In assay [1] the test system is Nad(P)H:quinone oxidoreductase 1 (NQO-1) gene expression. In words: NQO-1 gene expression by quantitative RT-PCR in macrophage cell line RAW 264.7. Type of assay: cell-based. Conditions: 0.5 μM SFN, RAW 264.7, 24 hours. As for the experimental part:
The following study was conducted to determine the effect of the combination of sulforaphane and a maitake mushroom extract containing 20% β-glucans on gene expression of Nad(P)H:quinone oxidoreductase 1 (NQO-1). NQO-1 encodes a protein that is able to metabolize estrogen quinones, preventing them from forming DNA adducts that cause mutations and ultimately carcinogenesis. An increase in NQO-1 expression is favorable for breast, colon, liver, lung, skin and prostate health.
In the study, the macrophage cell line RAW 264.7 was treated with DMSO (vehicle control), sulforaphane (SFN), maitake mushroom extract having about 20% beta-glucan content (Maitake), or the combination of sulforaphane and maitake mushroom extract, for 24 hours. […] Gene expression of NQO-1 gene expression was analyzed via quantitative RT-PCR. The results, which are depicted in FIG. 5, show the following: […]
In the study, the macrophage cell line RAW 264.7 was treated with DMSO (vehicle control), sulforaphane (SFN), shiitake mushroom extract having at least 20% alpha-glucan content (Shiitake), or the combination of sulforaphane and shiitake mushroom extract, for 24 hours. […] Gene expression of NQO-1 gene expression was analyzed via quantitative RT-PCR. […]

Assay [2] concerns NAD(P)H:quinone oxidoreductase (NQO1). The settings on record: oral administration, mammary epithelium; cited from earlier work.
In the next assay the test system is heme oxygenase-1 (HO-1). Conditions: oral administration, mammary epithelium; cited from earlier work.
In assay [3] the test system is broccoli sprout-derived myrosinase. In words: Consumption of glucoraphanin by myrosinase as a function of ascorbic acid concentration. Type of assay: biochemical. Conditions: 38° C. Here is the method:
About 250 mg of broccoli seed extract containing about 12% (w/w) glucoraphanin were subjected to hydrolysis by a fixed concentration of broccoli sprout-derived myrosinase in the presence of variable concentration of ascorbic acid, ranging from 0 to 600 μmoles/Liter. The reaction mixtures were thermostated at 38° C.; aliquots were withdrawn every 15 minutes for 60 minutes, and concentration of glucoraphanin determined chromatographically. The rate of glucoraphanin consumption was interpreted as the rate its conversion to sulforaphane. Graphical representation of glucoraphanin content reduction as a function of increasing ascorbic acid concentration results in a series of linear plots; the slopes of the linear regression lines reflect the rate of glucoraphanin consumption, in moles/minute. It is apparent that in the presence of 600 μmoles/Liter concentration of ascorbic acid, the reaction rate increased 13-fold relative to that which proceeded in the absence of modulatory effects of ascorbic acid.

For the next assay, the system named is myrosinase. In words: Conversion of glucoraphanin to sulforaphane in Simulated Intestinal Fluid. The format is biochemical, broccoli. The settings on record: 38° C., 0.25 to 1.00 mmol/Liter, especially at earlier stages. As for the experimental part:
Simulated Intestinal Fluid (SIF) powder, a commercially supplied concentrate closely approximating the human intestinal content in terms of composition, pH and ionic strength, was used. The experiment utilized a USP Dissolution Apparatus 2 (paddles), where into six dissolution vessels 500 mL of Simulated Intestinal Fluid was dispensed, along with 150 mg of freeze-dried broccoli sprout powder as a source of myrosinase. […] Aliquots were withdrawn every 15 minutes, and assayed for sulforaphane.

As for `C[S+]([O-])CCCCN=C=S` (stereo not shown) [SFN, 1-isothiocyanato-4-methylsulfinylbutane], the “Fold Increase in NQO-1 gene expression” value in assay [1] is reported as 12.96 fold. Besides, in assay [2], the “increase in NQO1 enzymatic activity” value is 3 fold. Besides, in the assay on heme oxygenase-1 (HO-1), the “elevated immunostaining of HO-1” value is reported as 4 fold.

In the case of `O=C1O[C@H]([C@@H](O)CO)C(O)=C1O` [Ascorbic Acid, ascorbic acid], the glucoraphanin content in assay [3] (50 μM ascorbic acid, 0 min) was 93.36 µmol; in assay [3] (50 μM ascorbic acid, 15 min), 89.20 µmol; in assay [3] (50 μM ascorbic acid, 30 min) it was 84.24 µmol; in assay [3] (50 μM ascorbic acid, 45 min), 80.30 µmol; in assay [3] (50 μM ascorbic acid, 60 min), 76.36 µmol; in assay [3] (125 μM ascorbic acid, 0 min), 93.36 µmol. Moreover, the glucoraphanin content in assay [3] (125 μM ascorbic acid, 15 min) came out at 84.52 µmol; in assay [3] (125 μM ascorbic acid, 30 min), 75.92 µmol; in assay [3] (125 μM ascorbic acid, 45 min), 68.09 µmol; in assay [3] (125 μM ascorbic acid, 60 min), 59.41 µmol; in assay [3] (250 μM Filtered ascorbic acid, 0 min), 93.36 µmol; in assay [3] (250 μM Filtered ascorbic acid, 15 min) it was 86.31 µmol. The glucoraphanin content came to 79.44 µmol in assay [3] (250 μM Filtered ascorbic acid, 30 min); 71.94 µmol in assay [3] (250 μM Filtered ascorbic acid, 45 min); 65.18 µmol in assay [3] (250 μM Filtered ascorbic acid, 60 min); 93.36 µmol in assay [3] (250 μM ascorbic acid, 0 min); 80.95 µmol in assay [3] (250 μM ascorbic acid, 15 min); 69.06 µmol in assay [3] (250 μM ascorbic acid, 30 min). The glucoraphanin content in assay [3] (250 μM ascorbic acid, 45 min) was 57.63 µmol; in assay [3] (250 μM ascorbic acid, 60 min) it was 45.76 µmol; in assay [3] (400 μM ascorbic acid, 0 min), 93.36 µmol; in assay [3] (400 μM ascorbic acid, 15 min) it was 78.32 µmol; in assay [3] (400 μM ascorbic acid, 30 min), 62.78 µmol; in assay [3] (400 μM ascorbic acid, 45 min), 47.67 µmol. In addition, the glucoraphanin content was found to be 33.15 µmol in assay [3] (400 μM ascorbic acid, 60 min); 93.36 µmol in assay [3] (600 μM ascorbic acid, 0 min); 75.02 µmol in assay [3] (600 μM ascorbic acid, 15 min); 55.66 µmol in assay [3] (600 μM ascorbic acid, 30 min); 37.50 µmol in assay [3] (600 μM ascorbic acid, 45 min); 22.09 µmol in assay [3] (600 μM ascorbic acid, 60 min). Further, in the assay with myrosinase, the “relation of sulforaphane yield to ascorbic acid concentration” value is recorded as “direct correlation”.

Source of the values: patent US10583178B2, “Compositions comprising sulforaphane or a sulforaphane precursor and a mushroom extract or powder” (NUTRAMAX LABORATORIES, INC., priority 2012, dated 2020).
